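Exposure lasted 48 hours, with cells grown in 96-well plates and compounds tested at five concentrations. The concentration for 50% growth inhibition is given as GI50.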 Active and inactive are the calls of the source. Rule as the data show it: active = GI50 up to about 1.1 µM and inactive = higher.
Columns and labels:
Experiment in all cases: NCI anticancer screen, dose series, 48 h
KM12 = test system: KM12
EKVX = test system: EKVX
M19-MEL = test system: M19-MEL
NCI/ADR-RES = test system: NCI/ADR-RES
KM-20L2 = test system: KM-20L2
OVCAR-5 = test system: OVCAR-5
DMS-273 = test system: DMS-273
SF-295 = test system: SF-295
NCI-H522 = test system: NCI-H522
HCT-116 = test system: HCT-116
PC-3 = test system: PC-3
786-0 = test system: 786-0
UACC-257 = test system: UACC-257
T47D = test system: T47D
U-251 = test system: U-251
CCRF-CEM = test system: CCRF-CEM
HCT-15 = test system: HCT-15
NCI-H23 = test system: NCI-H23
RXF 393 = test system: RXF 393
MDA-N = test system: MDA-N
MOLT-4 = test system: MOLT-4
A498 = test system: A498
SW-620 = test system: SW-620
CAKI-1 = test system: CAKI-1
SNB-78 = test system: SNB-78
HOP-18 = test system: HOP-18
SN12C = test system: SN12C
HOP-62 = test system: HOP-62
HL-60 = test system: HL-60
TK-10 = test system: TK-10
A549 = test system: A549
Hs-578T = test system: Hs-578T
ACHN = test system: ACHN
SK-MEL-5 = test system: SK-MEL-5
SR = test system: SR
NCI-H226 = test system: NCI-H226
SF-539 = test system: SF-539
LOX IMVI = test system: LOX IMVI
HT-29 = test system: HT-29
OVCAR-4 = test system: OVCAR-4
UO-31 = test system: UO-31
OVCAR-3 = test system: OVCAR-3
DMS-114 = test system: DMS-114
MDA-MB-435 = test system: MDA-MB-435
NCI-H460 = test system: NCI-H460
COLO 205 = test system: COLO 205
IGROV-1 = test system: IGROV-1
SK-MEL-2 = test system: SK-MEL-2
BT-549 = test system: BT-549
MDA-MB-231 = test system: MDA-MB-231
HCC 2998 = test system: HCC 2998
M14 = test system: M14
SF-268 = test system: SF-268
SK-MEL-28 = test system: SK-MEL-28
DLD-1 = test system: DLD-1
SNB-19 = test system: SNB-19
SNB-75 = test system: SNB-75
HOP-92 = test system: HOP-92
Malme-3M = test system: Malme-3M
DU-145 = test system: DU-145
RPMI-8226 = test system: RPMI-8226
UACC-62 = test system: UACC-62
K562 = test system: K562
MCF7 = test system: MCF7
OVCAR-8 = test system: OVCAR-8
SK-OV-3 = test system: SK-OV-3
XF498 = test system: XF498
LXFL 529 = test system: LXFL 529

## COc1cc2c(c(OC)c1OC)-c1ccc(SC)c(=O)cc1C(NC=O)CC2 (centres undefined)
KM12
  GI50: < 10 nM (active)
EKVX
  GI50: 3600 nM (inactive)
M19-MEL
  GI50: < 10 nM (active)
NCI/ADR-RES
  GI50: 39.3 nM (active)
KM-20L2
  GI50: < 10 nM (active)
OVCAR-5
  GI50: 164 nM (active)
DMS-273
  GI50: < 10 nM (active)
SF-295
  GI50: < 10 nM (active)
NCI-H522
  GI50: < 10 nM (active)
HCT-116
  GI50: < 10 nM (active)
PC-3
  GI50: < 10 nM (active)
786-0
  GI50: < 10 nM (active)
UACC-257
  GI50: 249 nM (active)
T47D
  GI50: 54100 nM (inactive)
U-251
  GI50: < 10 nM (active)
CCRF-CEM
  GI50: 15 nM (active)
HCT-15
  GI50: < 10 nM
NCI-H23
  GI50: < 10 nM (active)
RXF 393
  GI50: 46.3 nM (active)
MDA-N
  GI50: < 10 nM (active)
MOLT-4
  GI50: < 10 nM (active)
A498
  GI50: < 10 nM (active)
SW-620
  GI50: < 27.5 nM (active)
CAKI-1
  GI50: 18.3 nM (active)
SNB-78
  GI50: < 10 nM (active)
HOP-18
  GI50: > 45700 nM (inactive)
SN12C
  GI50: < 10 nM (active)
HOP-62
  GI50: < 10 nM (active)
HL-60
  GI50: < 10 nM (active)
TK-10
  GI50: 2020 nM (inactive)
A549
  GI50: < 10 nM (active)
Hs-578T
  GI50: < 10 nM (active)
ACHN
  GI50: < 10 nM (active)
SK-MEL-5
  GI50: < 10 nM (active)
SR
  GI50: < 10 nM (active)
NCI-H226
  GI50: 46.5 nM (active)
SF-539
  GI50: < 10 nM (active)
LOX IMVI
  GI50: < 10 nM (active)
HT-29
  GI50: < 10 nM (active)
OVCAR-4
  GI50: 66400 nM (inactive)
UO-31
  GI50: 18.8 nM (active)
OVCAR-3
  GI50: < 10 nM (active)
DMS-114
  GI50: < 10 nM (active)
MDA-MB-435
  GI50: < 10 nM (active)
NCI-H460
  GI50: < 10 nM (active)
COLO 205
  GI50: < 10 nM (active)
IGROV-1
  GI50: < 10 nM (active)
SK-MEL-2
  GI50: < 10 nM (active)
BT-549
  GI50: 239 nM (active)
MDA-MB-231
  GI50: < 10 nM (active)
HCC 2998
  GI50: < 10 nM (active)
M14
  GI50: < 10 nM (active)
SF-268
  GI50: < 10 nM (active)
SK-MEL-28
  GI50: 462 nM (active)
DLD-1
  GI50: < 10 nM (active)
SNB-19
  GI50: 34.4 nM (active)
SNB-75
  GI50: < 44.2 nM (active)
HOP-92
  GI50: < 10 nM (active)
Malme-3M
  GI50: < 10 nM (active)
DU-145
  GI50: < 10 nM (active)
RPMI-8226
  GI50: < 10 nM (active)
UACC-62
  GI50: < 10 nM (active)
K562
  GI50: < 10 nM (active)
MCF7
  GI50: < 10.7 nM (active)
OVCAR-8
  GI50: < 10 nM (active)
SK-OV-3
  GI50: 37.1 nM (active)
XF498
  GI50: < 10 nM (active)

## Brc1ccc(N2C[N+](c3ccc(Br)cc3)=NC(c3ccccc3)=N2)cc1.[O-][Cl+3]([O-])([O-])[O-]
KM12
  GI50: > 100000 nM (inactive)
EKVX
  GI50: 33900 nM (inactive)
M19-MEL
  GI50: > 100000 nM (inactive)
KM-20L2
  GI50: 70500 nM (inactive)
OVCAR-5
  GI50: > 100000 nM (inactive)
DMS-273
  GI50: 50100 nM (inactive)
SF-295
  GI50: 29400 nM (inactive)
NCI-H522
  GI50: 36000 nM (inactive)
HCT-116
  GI50: 49200 nM (inactive)
786-0
  GI50: > 100000 nM (inactive)
UACC-257
  GI50: > 100000 nM (inactive)
U-251
  GI50: > 100000 nM (inactive)
HCT-15
  GI50: > 100000 nM
NCI-H23
  GI50: 46900 nM (inactive)
RXF 393
  GI50: > 100000 nM (inactive)
MOLT-4
  GI50: 43000 nM (inactive)
A498
  GI50: > 100000 nM (inactive)
SW-620
  GI50: > 100000 nM (inactive)
CAKI-1
  GI50: > 100000 nM (inactive)
SNB-78
  GI50: > 100000 nM (inactive)
HOP-18
  GI50: > 100000 nM (inactive)
SN12C
  GI50: > 100000 nM (inactive)
HOP-62
  GI50: 74100 nM (inactive)
HL-60
  GI50: 30300 nM (inactive)
TK-10
  GI50: > 100000 nM (inactive)
A549
  GI50: 75900 nM (inactive)
ACHN
  GI50: 50200 nM (inactive)
SK-MEL-5
  GI50: 76400 nM (inactive)
NCI-H226
  GI50: > 100000 nM (inactive)
SF-539
  GI50: > 100000 nM (inactive)
HT-29
  GI50: 36700 nM (inactive)
OVCAR-4
  GI50: > 100000 nM (inactive)
UO-31
  GI50: > 100000 nM (inactive)
DMS-114
  GI50: 25100 nM (inactive)
NCI-H460
  GI50: > 100000 nM (inactive)
COLO 205
  GI50: 63400 nM (inactive)
IGROV-1
  GI50: > 100000 nM (inactive)
SK-MEL-2
  GI50: 46600 nM (inactive)
LXFL 529
  GI50: 45200 nM (inactive)
HCC 2998
  GI50: > 100000 nM (inactive)
M14
  GI50: 58300 nM (inactive)
SF-268
  GI50: 99300 nM (inactive)
SK-MEL-28
  GI50: > 100000 nM (inactive)
DLD-1
  GI50: 59800 nM (inactive)
SNB-19
  GI50: > 100000 nM (inactive)
SNB-75
  GI50: > 100000 nM (inactive)
HOP-92
  GI50: 77100 nM (inactive)
Malme-3M
  GI50: > 100000 nM (inactive)
RPMI-8226
  GI50: 49900 nM (inactive)
UACC-62
  GI50: > 100000 nM (inactive)
K562
  GI50: 31300 nM (inactive)
OVCAR-8
  GI50: > 100000 nM (inactive)
SK-OV-3
  GI50: > 100000 nM (inactive)
XF498
  GI50: > 100000 nM (inactive)

## CC(=O)O[C@H]1C(=O)[C@@]2(C)C(C(OC(=O)c3ccccc3)[C@]3(O)CC(OC(=O)C(O)C(NC(=O)c4ccccc4)c4ccc(C)cc4)C(C)=C1C3(C)C)[C@]1(OC(C)=O)CO[C@@H]1C[C@@H]2O (some centres undefined)
KM12
  GI50: 13.7 nM (active)
EKVX
  GI50: 8950 nM (inactive)
M19-MEL
  GI50: 19.5 nM (active)
KM-20L2
  GI50: 31 nM (active)
OVCAR-5
  GI50: 61.8 nM (active)
DMS-273
  GI50: 12.3 nM (active)
SF-295
  GI50: 78.7 nM (active)
NCI-H522
  GI50: 10.8 nM (active)
HCT-116
  GI50: 9.38 nM (active)
786-0
  GI50: 73 nM (active)
UACC-257
  GI50: 65.6 nM (active)
U-251
  GI50: 19.7 nM (active)
CCRF-CEM
  GI50: 14.7 nM (active)
HCT-15
  GI50: 897 nM
NCI-H23
  GI50: 25.1 nM (active)
RXF 393
  GI50: 7.4 nM (active)
MOLT-4
  GI50: 16.3 nM (active)
A498
  GI50: 12000 nM (inactive)
SW-620
  GI50: 5.55 nM (active)
CAKI-1
  GI50: 104 nM (active)
SNB-78
  GI50: 507 nM (active)
HOP-18
  GI50: 4010 nM (inactive)
SN12C
  GI50: 54.5 nM (active)
HOP-62
  GI50: 99.5 nM (active)
HL-60
  GI50: 6.9 nM (active)
TK-10
  GI50: 3080 nM (inactive)
A549
  GI50: 17.9 nM (active)
ACHN
  GI50: 466 nM (active)
SF-539
  GI50: 10.6 nM (active)
LOX IMVI
  GI50: 33 nM (active)
HT-29
  GI50: 9.4 nM (active)
OVCAR-4
  GI50: 3750 nM (inactive)
UO-31
  GI50: 2000 nM (inactive)
OVCAR-3
  GI50: 6.73 nM (active)
DMS-114
  GI50: 19.7 nM (active)
NCI-H460
  GI50: 8.26 nM (active)
COLO 205
  GI50: 15.3 nM (active)
IGROV-1
  GI50: 21.5 nM (active)
SK-MEL-2
  GI50: 17.9 nM (active)
LXFL 529
  GI50: 19.9 nM (active)
M14
  GI50: 16.1 nM (active)
SF-268
  GI50: 3640 nM (inactive)
DLD-1
  GI50: 186 nM (active)
SNB-19
  GI50: 24.3 nM (active)
SNB-75
  GI50: 53.1 nM (active)
HOP-92
  GI50: 565 nM (active)
Malme-3M
  GI50: 53.8 nM (active)
RPMI-8226
  GI50: 11.7 nM (active)
UACC-62
  GI50: 43 nM (active)
K562
  GI50: 30.8 nM (active)
OVCAR-8
  GI50: 9.79 nM (active)
SK-OV-3
  GI50: 11.7 nM (active)
XF498
  GI50: 2.5 nM (active)

Source: ChEMBL document CHEMBL1201862, “PubChem BioAssay data set” (2004)
